For one assay, the target named is T1, CDK9/CycT1 (Homo sapiens, UniProt P50750).
T1 construct: Recombinant full-length His-tagged human CDK9 and CycT1; purchased Life Technologies PV4131; host or cells: insect cells
Put plainly: CDK9/CycT1 high ATP kinase assay (TR-FRET, 2 mM ATP). To be noted: 2 mM ATP (high ATP); median; read-out: CDK9/CyclinT1, 2 mM ATP (high ATP), IC50 (median). In kind it is biochemical. The gist of the method: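 Full-length His-tagged human CDK9/CycT1 (insect cell, ~0.5 μg/mL) preincubated 15 min at 22 °C with compound in Tris pH 8.0, MgCl2, DTT buffer before reaction with biotinylated peptide substrate at high ATP (2 mM).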
Background: TR-FRET usually uses a lanthanide donor and a delayed reading to cut background.

Assay [1] addresses T2, CYCLIN K (nuclear staining in CAL-120 cells) (Homo sapiens, UniProt O75909).
T2 construct: endogenous in cells; host or cells: CAL-120 human breast cancer cells (DSMZ ACC 459)
Description: CYCLIN K nuclear protein level: immunofluorescence high content analysis (CAL-120). Type of assay: cell-based. To be noted: 24 h, 50% reduction of nuclear CCNK staining intensity, median, read-out: CYCLIN K degradation IF, DC50-[mol/l] (median). The gist of the method: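 Readout is automated confocal image analysis of nuclear cyclin K immunofluorescence (Hoechst nuclei) after PFA fixation. Cells were CAL-120, exposed to compound dose-response 24 h at 37 °C; values are DC50 for halving nuclear CCNK signal relative to DMSO and control wells.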

Where only a bound is given, the exact number is not on record here.

T1 sequence (P50750 whole entry): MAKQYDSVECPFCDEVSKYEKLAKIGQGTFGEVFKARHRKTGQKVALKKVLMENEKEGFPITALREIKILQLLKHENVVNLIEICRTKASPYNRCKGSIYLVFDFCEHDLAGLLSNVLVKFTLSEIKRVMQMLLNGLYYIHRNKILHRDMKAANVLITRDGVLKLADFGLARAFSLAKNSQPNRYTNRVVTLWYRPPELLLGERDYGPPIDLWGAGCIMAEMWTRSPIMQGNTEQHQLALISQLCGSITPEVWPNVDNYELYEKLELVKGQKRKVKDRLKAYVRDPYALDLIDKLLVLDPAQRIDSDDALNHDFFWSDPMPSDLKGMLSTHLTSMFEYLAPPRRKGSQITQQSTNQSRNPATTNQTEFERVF
T1 sequence (O60563 whole entry partner): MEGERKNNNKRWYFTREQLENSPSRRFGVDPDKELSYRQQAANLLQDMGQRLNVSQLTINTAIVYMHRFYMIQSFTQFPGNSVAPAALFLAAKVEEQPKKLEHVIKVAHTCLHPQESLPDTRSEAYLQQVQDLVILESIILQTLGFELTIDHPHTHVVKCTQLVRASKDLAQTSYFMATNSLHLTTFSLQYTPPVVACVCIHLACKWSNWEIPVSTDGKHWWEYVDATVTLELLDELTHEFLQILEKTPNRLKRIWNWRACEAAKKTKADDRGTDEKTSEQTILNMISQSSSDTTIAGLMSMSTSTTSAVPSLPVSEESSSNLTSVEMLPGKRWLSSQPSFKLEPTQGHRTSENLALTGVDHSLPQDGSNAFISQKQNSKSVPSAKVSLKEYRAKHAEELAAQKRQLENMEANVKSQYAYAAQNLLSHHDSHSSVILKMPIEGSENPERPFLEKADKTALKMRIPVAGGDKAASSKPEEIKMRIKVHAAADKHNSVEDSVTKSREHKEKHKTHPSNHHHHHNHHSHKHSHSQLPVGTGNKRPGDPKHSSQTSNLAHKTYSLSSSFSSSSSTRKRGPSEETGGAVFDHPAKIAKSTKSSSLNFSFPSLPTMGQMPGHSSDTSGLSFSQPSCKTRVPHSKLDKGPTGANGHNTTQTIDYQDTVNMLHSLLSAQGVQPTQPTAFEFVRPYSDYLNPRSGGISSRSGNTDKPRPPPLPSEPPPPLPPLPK
T2 sequence (O75909 whole entry): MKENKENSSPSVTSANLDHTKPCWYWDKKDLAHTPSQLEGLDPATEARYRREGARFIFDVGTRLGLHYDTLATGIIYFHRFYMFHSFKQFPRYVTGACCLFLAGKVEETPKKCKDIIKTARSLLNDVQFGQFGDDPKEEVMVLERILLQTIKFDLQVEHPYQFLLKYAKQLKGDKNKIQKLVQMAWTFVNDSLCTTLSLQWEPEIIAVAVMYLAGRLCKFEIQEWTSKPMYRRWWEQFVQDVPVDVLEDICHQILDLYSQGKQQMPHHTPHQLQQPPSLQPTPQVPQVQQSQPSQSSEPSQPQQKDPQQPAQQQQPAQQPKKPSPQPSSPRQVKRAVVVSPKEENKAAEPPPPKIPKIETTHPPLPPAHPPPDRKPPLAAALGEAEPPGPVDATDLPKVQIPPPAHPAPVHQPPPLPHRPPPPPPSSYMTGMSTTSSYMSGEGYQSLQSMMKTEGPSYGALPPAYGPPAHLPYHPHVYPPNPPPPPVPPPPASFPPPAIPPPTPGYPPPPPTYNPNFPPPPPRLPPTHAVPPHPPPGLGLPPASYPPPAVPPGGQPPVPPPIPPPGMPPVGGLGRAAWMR
T2 sequence (Q9NYV4 whole entry partner): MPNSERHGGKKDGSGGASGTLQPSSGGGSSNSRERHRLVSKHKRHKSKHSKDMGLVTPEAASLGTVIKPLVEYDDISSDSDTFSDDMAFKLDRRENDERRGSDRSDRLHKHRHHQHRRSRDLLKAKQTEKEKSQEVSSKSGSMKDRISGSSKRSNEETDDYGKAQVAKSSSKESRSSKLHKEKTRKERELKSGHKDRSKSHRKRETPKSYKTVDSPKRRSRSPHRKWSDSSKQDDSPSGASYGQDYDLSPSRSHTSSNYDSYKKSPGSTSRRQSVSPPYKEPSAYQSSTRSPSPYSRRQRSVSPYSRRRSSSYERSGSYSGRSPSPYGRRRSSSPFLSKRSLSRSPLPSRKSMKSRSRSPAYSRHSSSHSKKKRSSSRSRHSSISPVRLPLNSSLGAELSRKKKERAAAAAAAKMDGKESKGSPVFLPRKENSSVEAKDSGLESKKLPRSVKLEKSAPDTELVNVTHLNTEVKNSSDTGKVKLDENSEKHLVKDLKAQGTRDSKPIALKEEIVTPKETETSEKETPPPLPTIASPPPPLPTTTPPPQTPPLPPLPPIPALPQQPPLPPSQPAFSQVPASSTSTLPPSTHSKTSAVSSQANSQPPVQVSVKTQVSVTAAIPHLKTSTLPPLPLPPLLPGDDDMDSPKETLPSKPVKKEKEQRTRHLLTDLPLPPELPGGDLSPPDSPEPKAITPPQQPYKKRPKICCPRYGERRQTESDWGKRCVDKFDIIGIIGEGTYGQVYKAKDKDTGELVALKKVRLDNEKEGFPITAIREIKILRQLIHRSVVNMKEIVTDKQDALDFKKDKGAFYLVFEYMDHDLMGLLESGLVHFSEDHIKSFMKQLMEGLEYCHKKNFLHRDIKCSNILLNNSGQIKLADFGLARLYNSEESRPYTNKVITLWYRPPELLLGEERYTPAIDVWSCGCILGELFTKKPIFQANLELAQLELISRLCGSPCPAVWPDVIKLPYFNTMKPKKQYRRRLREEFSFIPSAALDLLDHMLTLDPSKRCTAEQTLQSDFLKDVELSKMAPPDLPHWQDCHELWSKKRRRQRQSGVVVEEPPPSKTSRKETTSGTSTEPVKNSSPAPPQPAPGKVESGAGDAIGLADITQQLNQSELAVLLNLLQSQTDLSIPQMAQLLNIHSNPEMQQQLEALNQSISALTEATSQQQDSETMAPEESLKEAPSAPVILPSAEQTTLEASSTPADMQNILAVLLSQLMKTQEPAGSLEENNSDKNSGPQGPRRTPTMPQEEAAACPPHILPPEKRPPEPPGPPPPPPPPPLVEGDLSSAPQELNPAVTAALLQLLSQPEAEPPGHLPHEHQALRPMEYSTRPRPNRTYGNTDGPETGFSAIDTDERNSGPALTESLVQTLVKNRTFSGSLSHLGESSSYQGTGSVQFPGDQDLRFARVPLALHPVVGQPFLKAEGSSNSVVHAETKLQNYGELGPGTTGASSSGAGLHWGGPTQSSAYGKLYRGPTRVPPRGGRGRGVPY

As for `Fc1cccc2[nH]c(CNc3nc(N4C[C@H]5CC[C@@H](C4)N5)nc4c(C5CC5)cnn34)nc12` [Example 296, 8-cyclopropyl-2-[(1R,5S)-3,8-diazabicyclo[3.2.1]octan-3-yl]-N-[(4-fluoro-1H-benzimidazol-2-yl)methyl]pyrazolo[1,5-a][1,3,5]triazin-4-amine], at CDK9/CycT1, the IC50 was greater than 20000 nM. The DC50 in assay [1] was found to be 1.15 nM.

On to `Cc1ccnc2[nH]c(CNc3nc(N4CCOCC4)nc4c(Br)cnn34)nc12` [Example 20, 8-bromo-N-[(7-methyl-3H-imidazo[4,5-b]pyridin-2-yl)methyl]-2-(morpholin-4-yl)pyrazolo[1,5-a][1,3,5]triazin-4-amine], for which the IC50 on CDK9/CycT1 was determined as 9220 nM. For the same compound, the DC50 in assay [1] came out at 1.35 nM.

For `Fc1cccc2[nH]c(CNc3nc(N4CCOCC4)nc4c(CC(F)(F)F)cnn34)nc12` [Example 303, N-[(4-fluoro-1H-benzimidazol-2-yl)methyl]-2-(morpholin-4-yl)-8-(2,2,2-trifluoroethyl)pyrazolo[1,5-a][1,3,5]triazin-4-amine], the IC50 on CDK9/CycT1 is greater than 20000 nM. For the same compound, the DC50 in assay [1] amounted to 0.546 nM.

`CN(CC(C)(C)O)c1nc(NCc2nc3c(F)cccc3[nH]2)n2ncc(C3CC3)c2n1` [Example 295, 1-[(8-cyclopropyl-4-{[(4-fluoro-1H-benzimidazol-2-yl)methyl]amino}pyrazolo[1,5-a][1,3,5]triazin-2-yl)(methyl)amino]-2-methylpropan-2-ol]: the IC50 on CDK9/CycT1 was 9270 nM. Moreover, the DC50 in assay [1] worked out at 2.55 nM.

As to `N[C@@H]1CN(c2nc(NCc3nc4ccccc4[nH]3)n3ncc(Br)c3n2)CC12CC2` [Example 251, 2-[(7S)-7-amino-5-azaspiro[2.4]heptan-5-yl]-N-[(1H-benzimidazol-2-yl)methyl]-8-bromopyrazolo[1,5-a][1,3,5]triazin-4-amine], at CDK9/CycT1, the IC50 was greater than 20000 nM. The DC50 in assay [1] amounted to 0.11 nM.

Consider `CN1CCN(c2nc(NCc3nc4cc(F)c(Cl)cc4[nH]3)n3ncc(C4CC4)c3n2)CC1` [Example 309, N-[(6-chloro-5-fluoro-1H-benzimidazol-2-yl)methyl]-8-cyclopropyl-2-(4-methylpiperazin-1-yl)pyrazolo[1,5-a][1,3,5]triazin-4-amine], for which the IC50 on CDK9/CycT1 was greater than 20000 nM. Also, in assay [1], the DC50 is 0.914 nM.

On to `CC1CN(C)CCN1c1nc(NCc2nc3ccccc3[nH]2)n2ncc(Br)c2n1` (single isomer, unassigned; enantiomer 1) [Example 260, N-(1H-benzimidazol-2-ylmethyl)-8-bromo-2-[(2R or S)-2,4-dimethylpiperazin-1-yl]pyrazolo[1,5-a][1,3,5]triazin-4-amine (Enantiomer 1)], for which the IC50 at CDK9/CycT1 is greater than 20000 nM. In addition, the DC50 in assay [1] came to 0.152 nM.

Turning to `FC(F)(F)Cc1cnn2c(NCc3nc4ccccc4[nH]3)nc(N3CCOCC3)nc12.O=CO` [Example 265, formic acid-N-[(1H-benzimidazol-2-yl)methyl]-2-(morpholin-4-yl)-8-(2,2,2-trifluoroethyl)pyrazolo[1,5-a][1,3,5]triazin-4-amine (1/1)], the IC50 on CDK9/CycT1 is greater than 20000 nM. For the same compound, the DC50 in assay [1] was 3.14 nM.

Regarding `Fc1ccc2[nH]c(CNc3nc(N4CCOCC4)nc4c(C5CCCC5)cnn34)nc2c1F` [Example 262, 8-cyclopentyl-N-[(4,5-difluoro-1H-benzimidazol-2-yl)methyl]-2-(morpholin-4-yl)pyrazolo[1,5-a][1,3,5]triazin-4-amine], the IC50 at CDK9/CycT1 was greater than 20000 nM. Besides, the DC50 in assay [1] amounted to 1.94 nM.

On to `Fc1cc2nc(CNc3nc(N4CCOCC4)nc4c(C5CC5)cnn34)[nH]c2cc1F` [Example 318, 8-cyclopropyl-N-[(5,6-difluoro-1H-benzimidazol-2-yl)methyl]-2-(morpholin-4-yl)pyrazolo[1,5-a][1,3,5]triazin-4-amine], for which, at CDK9/CycT1, the IC50 was greater than 20000 nM. Besides, in assay [1], the DC50 was determined as 0.516 nM.

For the compound `Fc1ccc2[nH]c(CNc3nc(N4CCOCC4)nc4c(C5CCC5)cnn34)nc2c1F` [Example 264, 8-cyclobutyl-N-[(4,5-difluoro-1H-benzimidazol-2-yl)methyl]-2-(morpholin-4-yl)pyrazolo[1,5-a][1,3,5]triazin-4-amine], the IC50 on CDK9/CycT1 was greater than 20000 nM. In addition, the DC50 in assay [1] is 1.8 nM.

Consider `Brc1cnn2c(NCc3nc4ccccc4[nH]3)nc(N3C[C@H]4CNC[C@H]4C3)nc12` [Example 283, N-[(1H-benzimidazol-2-yl)methyl]-8-bromo-2-[(3aR,6aS)-hexahydropyrrolo[3,4-c]pyrrol-2(1H)-yl]pyrazolo[1,5-a][1,3,5]triazin-4-amine], for which, on CDK9/CycT1, the IC50 was greater than 20000 nM. For the same compound, the DC50 in assay [1] amounted to 0.367 nM.

Turning to `Brc1cnn2c(NCc3ncc(-c4ccccc4)[nH]3)nc(N3CCOCC3)nc12` [Example 23, 8-bromo-2-(morpholin-4-yl)-N-[(5-phenyl-1H-imidazol-2-yl)methyl]pyrazolo[1,5-a][1,3,5]triazin-4-amine], the IC50 at CDK9/CycT1 amounted to 3240 nM. Further, in assay [1], the DC50 amounted to 1.02 nM.

On to `Fc1ccc2[nH]c(CNc3nc(N4CCOCC4)nc4c(CC(F)(F)F)cnn34)nc2c1F` [Example 268, N-[(4,5-difluoro-1H-benzimidazol-2-yl)methyl]-2-(morpholin-4-yl)-8-(2,2,2-trifluoroethyl)pyrazolo[1,5-a][1,3,5]triazin-4-amine], for which the IC50 at CDK9/CycT1 was greater than 20000 nM. Further, the DC50 in assay [1] is 0.756 nM.

As to `CNC1CCN(c2nc(NCc3nc4ccccc4[nH]3)n3ncc(Br)c3n2)CC1` [Example 272, N-[(1H-benzimidazol-2-yl)methyl]-8-bromo-2-[4-(methylamino)piperidin-1-yl]pyrazolo[1,5-a][1,3,5]triazin-4-amine], the IC50 on CDK9/CycT1 was greater than 20000 nM. The DC50 in assay [1] amounted to 1.38 nM.

In the case of `Fc1ccc2[nH]c(CNc3nc(N4CCOCC4)nc4c([C@@H]5CC5(F)F)cnn34)nc2c1` (single isomer, unassigned) [Example 315, 8-[(1R or S)-2,2-difluorocyclopropyl]-N-[(5-fluoro-1H-benzimidazol-2-yl)methyl]-2-(morpholin-4-yl)pyrazolo[1,5-a][1,3,5]triazin-4-amine], at CDK9/CycT1, the IC50 is greater than 20000 nM. Further, the DC50 in assay [1] is 2.15 nM.

Consider `CN1CCN(c2nc(NCc3nc4cc(F)c(F)cc4[nH]3)n3ncc(C4CC4)c3n2)CC1` [Example 311, 8-cyclopropyl-N-[(5,6-difluoro-1H-benzimidazol-2-yl)methyl]-2-(4-methylpiperazin-1-yl)pyrazolo[1,5-a][1,3,5]triazin-4-amine], for which the IC50 on CDK9/CycT1 is greater than 20000 nM. The DC50 in assay [1] was 0.892 nM.

Turning to `Fc1ccc2[nH]c(CNc3nc(N4CCOCC4)nc4c(Br)cnn34)nc2c1F` [Example 25, 8-bromo-N-[(4,5-difluoro-1H-benzimidazol-2-yl)methyl]-2-(morpholin-4-yl)pyrazolo[1,5-a][1,3,5]triazin-4-amine], the IC50 on CDK9/CycT1 came out at 5780 nM. In assay [1], the DC50 came to 0.263 nM.

In the case of `CN1CCN(c2nc(NCc3nc4c(F)cccc4[nH]3)n3ncc(C(F)(F)F)c3n2)CC1` [Example 293, N-[(4-fluoro-1H-benzimidazol-2-yl)methyl]-2-(4-methylpiperazin-1-yl)-8-(trifluoromethyl)pyrazolo[1,5-a][1,3,5]triazin-4-amine], at CDK9/CycT1, the IC50 was greater than 20000 nM. The DC50 in assay [1] was 0.385 nM.

For the compound `FC(F)(F)Cc1cnn2c(NCc3nc4cc(Cl)c(Cl)cc4[nH]3)nc(N3CCOCC3)nc12` [Example 302, N-[(5,6-dichloro-1H-benzimidazol-2-yl)methyl]-2-(morpholin-4-yl)-8-(2,2,2-trifluoroethyl)pyrazolo[1,5-a][1,3,5]triazin-4-amine], at CDK9/CycT1, the IC50 was greater than 20000 nM. Also, the DC50 in assay [1] stood at 1.66 nM.

As to `CN(CC(C)(C)O)c1nc(NCc2nc3c(F)c(F)ccc3[nH]2)n2ncc(C3CC3)c2n1` [Example 292, 1-[(8-cyclopropyl-4-{[(4,5-difluoro-1H-benzimidazol-2-yl)methyl]amino}pyrazolo[1,5-a][1,3,5]triazin-2-yl)(methyl)amino]-2-methylpropan-2-ol], the IC50 at CDK9/CycT1 is greater than 6250 nM. Moreover, the DC50 in assay [1] turned out to be 0.643 nM.

With `Brc1cnn2c(NCc3nc4ccccc4[nH]3)nc(N3C[C@H]4C[C@@H]3CN4)nc12` [Example 269, N-[(1H-benzimidazol-2-yl)methyl]-8-bromo-2-[(1R,4R)-2,5-diazabicyclo[2.2.1]heptan-2-yl]pyrazolo[1,5-a][1,3,5]triazin-4-amine], the IC50 on CDK9/CycT1 is greater than 20000 nM. In addition, in assay [1], the DC50 is 0.324 nM.

As for `CN(CC(C)(C)O)c1nc(NCc2nc3cc(F)c(Cl)cc3[nH]2)n2ncc(C3CC3)c2n1` [Example 317, 1-[(4-{[(6-chloro-5-fluoro-1H-benzimidazol-2-yl)methyl]amino}-8-cyclopropylpyrazolo[1,5-a][1,3,5]triazin-2-yl)(methyl)amino]-2-methylpropan-2-ol], at CDK9/CycT1, the IC50 is greater than 20000 nM. Further, in assay [1], the DC50 was determined as 0.347 nM.

`FC(F)(F)Cc1cnn2c(NCc3nc4cc(Cl)ccc4[nH]3)nc(N3CCOCC3)nc12` [Example 299, N-[(5-chloro-1H-benzimidazol-2-yl)methyl]-2-(morpholin-4-yl)-8-(2,2,2-trifluoroethyl)pyrazolo[1,5-a][1,3,5]triazin-4-amine]: the IC50 on CDK9/CycT1 is greater than 20000 nM. Also, the DC50 in assay [1] worked out at 0.484 nM.

As to `NC1CCN(c2nc(NCc3nc4ccccc4[nH]3)n3ncc(Br)c3n2)CC1` [Example 256, 2-(4-aminopiperidin-1-yl)-N-[(1H-benzimidazol-2-yl)methyl]-8-bromopyrazolo[1,5-a][1,3,5]triazin-4-amine], the IC50 on CDK9/CycT1 was greater than 20000 nM. The DC50 in assay [1] is 0.326 nM.

The record behind these values is patent publication US20230117034A1, “PYRAZOLOTRIAZINES” (Bayer Aktiengesellschaft, priority 2019, published 2023).
